US11001891B2, “Methods for treating Parkinson's disease” (Berg LLC, priority 2016, dated 2021)

Experiments:
Format in all cases: cell-based, human
SH-SY5Y cells [1] = assay: Cell death in SH-SY5Y cells treated with rotenone or 6-OHDA (in vitro chemical model of Parkinson's Disease); conditions: 48 hours rotenone or 6-OHDA in the presence vs absence of inhibitor
Text: The purpose of this experiment was to test the effect of inhibiting the expression of PIG3 in an in vitro chemical model of Parkinson's Disease. For this experiment, an siRNA capable of inhibiting the expression of PIG3 (PIG3 siRNA) was synthesized and tested in SH-SY5Y cells against a non-targeting […] (NTC).
(§1) The purpose of this experiment was to test the effect of inhibiting the p38 MAPK activity on cell death and the expression of PIG3 in in vitro chemical model of Parkinson's Disease. […] SH-SY5Y cell death and PIG3 mRNA expression were assessed following treatment.
(§2) The purpose of this experiment was to test the effect of inhibiting LRRK2 activity on cell death and the expression of PIG3 in in vitro chemical model of Parkinson's Disease. […] SH-SY5Y cell death and PIG3 mRNA expression were assessed following treatment.

PIG3 mRNA = PIG3 mRNA expression in SH-SY5Y cells treated with rotenone or 6-OHDA in presence of kinase inhibitor; conditions: 48 hours rotenone or 6-OHDA in the presence vs absence of inhibitor
Description: as §1, §2

SH-SY5Y cells [2] = assay: PIG3 protein, cleaved PARP and cell death in SH-SY5Y cells treated with 6-OHDA; conditions: 6-OHDA 0, 50 and 100 μm, 48 hours
Description: This experiment was similar to the experiment described in Example 1, except that the in vitro chemical model of Parkinson's Disease involved treatment of SH-SY5Y cells with oxidopamine, also known as 6-hydroxydopamine (6-OHDA) or 2,4,5-trihydroxyphenethylamine 6-OHDA is known to have a selective adverse effect on dopaminergic and noradrenergic neurons. The structure of 6-OHDA is shown below:
For the experiment, SH-SY5Y cells were treated with 6-OHDA at a concentration of 0, 50 and 100 μm for 48 hours. Following the treatment, the amount of PIG3 protein in the cells and the extent of SH-SY5Y cell death were assessed. Cells treated with etoposide were used as a positive control. Apoptosis in the treated cells was assessed by measuring the amount of cleaved poly(ADP-ribose) polymerase (PARP).

PIG3 protein = assay: Time course of PIG3 protein in SH-SY5Y cells after 6-OHDA (immunoblot); conditions: 50 nm 6-OHDA, normalized to actin
Description: The purpose of this experiment was to access the effect of overexpression of PIG3 on cell viability and reactive oxygen species (ROS) production. To this end, SH-SY5Y cells stably overexpressing the PIG3 open reading frame (PIG3 ORF) were created and characterized by determining their viability, ROS burden and the amount of PIG3 protein produced in response to treatment with 50 nM 6-OHDA. Cell viability was measured relative to the empty vector control, pLOC (CTRL). ROS burden was estimated using DCFDA fluorescence measured by flow cytometry; and the amount of PIG3 protein was measured by immunoblotting and normalizing the densitometry of immunoreactivity to the amount of actin as a loading control.

[3] = test system: patient-specific induced pluripotent stem cells (iPSCs); conditions: rotenone 0-1,000 nm or 6-OHDA 0.5-10 μM, 48 hours
Description: (§3) For the experiment, patient-specific iPSCs were prepared by reprogramming primary dermal fibroblasts harvested from the upper arm of PD+ and unaffected donors using a non-integrating, self-replicating polycistronic RNA construct containing the reprogramming factors OCT4, SOX2, KLF4 and GLIS1 (Millipore, Simplicon™) according to published protocols. […] Following the treatment, the amount of PIG3 protein in the cells and cell viability were assessed.

PIG3 = PIG3 expression in patient-specific iPSCs after neurotoxin treatment; conditions: rotenone 0-1,000 nm or 6-OHDA 0.5-10 μM, 48 hours
Description: as §3

LRRK2-PD neurons = conditions: iPSC-derived LRRK2-PD neurons, increasing concentrations of neurotoxin
Description: IPSCs were prepared from LRRK2-PD fibroblasts and then differentiated towards excitatory cortical neurons as described in the above examples and following published protocols (e.g., Shi et al., Nat. Neurosci. 2012, 15(3):10.1038; Chamber et al. Nat. Biotechnology, 2009, 27:275-280, the entire contents of which are incorporated herein by reference).

SH-SY5Y cells [4] = assay: PIG3 protein, cleaved PARP and cell death in SH-SY5Y cells treated with rotenone; conditions: rotenone 0, 50, 100 and 500 nm, 48 hours, immunoblot
Description: The purpose of this experiment was to evaluate the expression of PIG3 and cell viability in an in vitro chemical model of Parkinson's Disease.
Following the treatment, the amount of PIG3 protein in the cells and the extent of SH-SY5Y cell death were assessed. Cells treated with etoposide, which is known to induce apoptosis, were used as a positive control. Apoptosis in the treated cells was assessed by measuring the amount of cleaved poly(ADP-ribose) polymerase

Row | SMILES | cell death (SH-SY5Y cells [1]) | PIG3 mRNA expression (PIG3 mRNA) | apoptosis (cleaved PARP) / cell death (SH-SY5Y cells [2]) | amount of PIG3 protein (SH-SY5Y cells [2]; immunoblot) | relative amounts of PIG3 protein at different times after treatment (PIG3 protein) | iPSC viability [3] | PIG3 expression (PIG3) | PIG3 protein (LRRK2-PD neurons) | cleaved PARP expression (LRRK2-PD neurons) | amount of PIG3 protein (SH-SY5Y cells [4])
1 | COc1cc(C(=O)N2CCC(N3CCN(C)CC3)CC2)ccc1Nc1ncc2c(n1)N(C)c1ccccc1C(=O)N2C [LRRK2-IN-1] | decreased cell death | decreased PIG3 mRNA expression | – | – | – | – | – | – | – | –
2 | NCCc1cc(O)c(O)cc1O [6-OHDA, 2,4,5-trihydroxyphenethylamine] | – | – | 6-OHDA-induced apoptosis | increased as a function of increasing concentration of 6-OHDA | time-dependent accumulation of PIG3 protein | decreased viability | increased PIG3 expression | further increases | further increases | –
3 | C[S+]([O-])c1ccc(-c2nc(-c3ccncc3)c(-c3ccc(F)cc3)[nH]2)cc1 (centres unmarked) [SB203580] | decreased cell death | decreased PIG3 mRNA expression | – | – | – | – | – | – | – | –
4 | C=C(C)[C@H]1Cc2c(ccc3c2O[C@@H]2COc4cc(OC)c(OC)cc4[C@@H]2C3=O)O1 [rotenone] | – | – | – | – | – | – | increased PIG3 expression | further increases | – | increased as a function of increasing concentration of rotenone
